In US8202880B2, “3-hydroxy-6-phenylphenanthridines as PDE4 inhibitors” (NYCOMED GmbH, priority 2002, dated 2012) one finds melting point data, which are given here for two molecules.

The structures appear in SMILES notation.

Take `COc1cc2c(cc1OC)C1CCC(O)CC1N=C2c1ccc(OCC2CC2)c(OCC2CC2)c1` (racemic) [Compound 3, (±)-(3RS,4aRS,10bRS)-6-(3,4-Bis-cyclopropylmethoxyphenyl)-8,9-dimethoxy(1,2,3,4,4a,10b)-hexahydrophenanthridin-3-ol]: the melting point lay within 137 to 138 °C.
`COc1cc2c(cc1OC)[C@H]1CC[C@H](O)C[C@H]1N=C2c1ccc(OCC2CC2)c(OCC2CC2)c1` (racemic) [Compound 4, (±)-(3SR,4aRS,10bRS)-6-(3,4-Bis-cyclopropylmethoxyphenyl)-8,9-dimethoxy-1,2,3,4,4a,10b-hexahydrophenanthridin-3-ol]: the melting point is 172.5 to 174 °C.

One may read the melting point as the temperature, or range, at which the solid turns liquid.
